How the values were obtained:
AtTTM2 = experiment: Quantitative real-time PCR of AtTTM2 expression after SA, BTH or flg22 treatment; assay type: in vivo, Arabidopsis thaliana
Procedure: (§1) Arabidopsis (Arabidopsis thaliana accession Columbia), canola (Brassica napus var. Westar), and soybean (Glycine max var. Harasoy) plants were grown in Sunshine Mix at 22° C., 60% relative humidity (RH), and ˜140 μE m^−2 s^−1 with a 9h-photoperiod. 7-10 day-old Arabidopsis plants were infected with Hyaloperonospora arabidopsidis (Hpa). Spore counts of 1×10^5 conidiospores ml^−1, 8×10^5 cells ml^−1, and 2×10^5 cells ml^−1 were used for Noco2, Emco5, and Emwa1 isolates, respectively. Seedlings were then infected via drop inoculation and left at 16° C., >90% RH for 7-10 days before disease assessment. 4-week-old plants were infiltrated with 1×10^5 CFU ml^−1 of the bacterial pathogen, Pseudomonas syringae tomato DC3000 (AvrRps4) and bacterial growth was assessed at 0 and 3 days post infiltration.
(§2) RNA extraction was carried out using the TRIzol reagent (Life Technologies, Carlsbad, Calif.), according to the manufacturer's instructions. Reverse transcriptase (RT)-PCR was performed using cDNA generated by SuperScript II Reverse Transcriptase (Life Technologies, Carlsbad, Calif.) according to the manufacturer's instructions. Expression of PR1 was visualized by gel electrophoresis of samples after RT-PCR with PR1 primers (AtPR1-F, AtPR1-R).
(§3) Quantitative real-time PCR was performed using Fast SYBR Green Master Mix (Life Technologies, Carlsbad, Calif.). […]

PR1 = experiment: Quantitative real-time PCR of PR1 gene expression after SA or BTH treatment; assay type: in vivo, Arabidopsis thaliana; details: Col wild type
Procedure: as §1, §2, §3

BnTTM2a, BnTTM2b = experiment: qPCR of TTM2 orthologues in canola after BTH treatment; assay type: in vivo, Brassica napus; details: canola var. Westar, 200 μM BTH, 48hrs
Procedure: as §1
(§4) Quantitative real-time PCR was performed using Fast SYBR Green Master Mix (Life Technologies, Carlsbad, Calif.). The expression of Arabidopsis genes were normalized to the expression of AtEF1A (elongation factor1-alpha) while the expression of soybean and canola genes were normalized to GmEF1B (elongation factor1-beta) and BnUBC21 (ubiquitin conjugating enzyme21), respectively.
(§5) 7- to 10-day old Arabidopsis seedlings were treated with 100 μM SA or 200 μM BTH. […]

GmTTM2a/b = experiment: qPCR of TTM2 orthologues in soybean after BTH treatment; assay type: in vivo, Glycine max; details: soybean var. Harasoy, 200 μM BTH, 48hrs
Procedure: as §1, §4, §5

SITTM2A and B = experiment: Expression of TTM2 in tomato after BTH treatment; assay type: in vivo, Solanum lycopersicum; details: 4-5 week old tomato, 200 μM BTH, 48 hours
Procedure: (§6) Tomato, Cucumber, Pepper and Petunia plants for BTH treatment were grown in Sunshine Mix at 22° C., 60% relative humidity, and approximately 140 uE m^−2 s^−1 with a 9-h photoperiod. Rice and Brachypodium distachyon plants for BTH treatment were grown in Rice Mix. tomato plants for Pseudomonas infection were grown in Sunshine Mix, at 22° C. 60% relative humidity, and natural light condition.
FIG. 23 illustrates expression of SITTM2A and B in approximately 4-5 week old tomato (Solanum lycopersicum) 48 hours after with and without BTH (200 μM) treatment. Solution was sprayed with the addition of 0.025% (v/v) Silwet. Expression of both genes was suppressed similar to Arabidopsis TTM2.

CsTTM2 = experiment: Expression of TTM2 in cucumber after BTH treatment; assay type: in vivo, Cucumis sativus; details: 4-5 week old cucumber, 200 uM BTH, 48 hours
Procedure: as §6
FIG. 24a illustrates expression of CsTTM2 in approximately 4-5 week old cucumber (Cucumis sativus) 48 hours after BTH (200 uM) treatment. Solution was sprayed with the addition of 0.025% (v/v) Silwet. Expression of the gene was suppressed similar to Arabidopsis TTM2.

CaTTM2 = experiment: Expression of TTM2 in pepper after BTH treatment; assay type: in vivo, Capsicum annuum; details: 4-5 week old pepper, 200 uM BTH, 48 hours
Procedure: as §6
FIG. 24b illustrates expression of CaTTM2 in approximately 4-5 week old pepper (Capsicum annuum) 48 hours after BTH (200 uM) treatment. Solution was sprayed with the addition of 0.025% (v/v) Silwet. Expression of the gene was suppressed similar to Arabidopsis TTM2.

PhTTM2A and B = experiment: Expression of TTM2 in Petunia after BTH treatment; assay type: in vivo, Petunia hybrida; details: 4-5 week old Petunia, 200 uM BTH, 48 hours
Procedure: as §6
FIG. 25 illustrates expression of PhTTM2A and B in approximately 4-5 week old Petunia (Petunia hybrida) 48 hours after BTH (200 uM) treatment. Solution was sprayed with the addition of 0.025% (v/v) Silwet. Expression of both genes was suppressed similar to Arabidopsis TTM2.

OsTTM2 = experiment: Expression of TTM2 in rice after BTH treatment; assay type: in vivo, Oryza sativa; details: 4 week old rice, 200 uM BTH, 48 hours
Procedure: as §6
(§7) FIG. 26 illustrates expression of OsTTM2 in 4 week old rice (Oryza sativa) plant and BdTTM2 in the model monocotyledonous plant Brachypodium distachyon 48 hours after BTH (200 uM) treatment. Solution was sprayed with the addition of 0.025% (v/v) Silwet. Expression of both genes was suppressed similar to Arabidopsis TTM2.

BdTTM2 = experiment: Expression of TTM2 in Brachypodium distachyon after BTH treatment; assay type: in vivo; details: 200 uM BTH, 48 hours
Procedure: as §6, §7

Structure (SMILES) | AtTTM2 down-regulation after BTH treatment (AtTTM2; Col wild type, 200 μM BTH, 48h) | PR1 gene expression after BTH treatment (PR1; 200 μM BTH, 48h) | Expression of BnTTM2a, BnTTM2b in response to BTH (BnTTM2a, BnTTM2b) | Expression of GmTTM2a/b in response to BTH (GmTTM2a/b) | Expression of SITTM2A and B after BTH treatment (SITTM2A and B) | Expression of CsTTM2 after BTH treatment (CsTTM2) | Expression of CaTTM2 after BTH treatment (CaTTM2) | Expression of PhTTM2A and B after BTH treatment (PhTTM2A and B) | Expression of OsTTM2 after BTH treatment (OsTTM2) | Expression of BdTTM2 after BTH treatment (BdTTM2) | AtTTM2 down-regulation after SA treatment (AtTTM2; Col wild type plants sprayed with 100 μM SA, 24h) | PR1 gene expression after SA treatment (PR1; 100 μM SA, 24h)
c1ccc2snnc2c1 [BTH, benzothiadiazole] | down-regulation was also observed | increase in PR1 gene expression | similarly down-regulated | similarly down-regulated | suppressed | suppressed | suppressed | suppressed | suppressed | suppressed |  | 
O=C(O)c1ccccc1O [SA, salicylic acid] |  |  |  |  |  |  |  |  |  |  | more than 2 fold | increase in PR1 gene expression
